This assay has as its system prostaglandin E2-induced hyperalgesia. Briefly: rat paw pressure test, prostaglandin E2-induced hyperalgesia. As to conditions: for pain threshold, FM (g) ± S.E.M: 3 h after PGE2 100 ng/paw i.pl.; for analgesic activity: synthetic peptides compared with natural ENPAK-k, similar conditions.
Setting [1] is: oral route, reversal of PGE2-induced hyperalgesia, CurveExpert 1.3.

Bridges are numbered along the chain shown (N, C = ends). Where no end group is shown, it is not given here. [ ]: non-standard residue; d: D form. pGlu = O=C1CC[C@@H](C(=O)O)N1

As for `CN1CC[C@]23c4c5ccc(O)c4O[C@H]2[C@@H](O)C=C[C@H]3[C@H]1C5` [Morphine, reference compound], the “pain threshold, FM (g) ± S.E.M” value came to 69 ± 1.87 g (morphine 0.004 μg/kg p.o.), 70 ± 1.58 g (morphine 0.2 μg/kg p.o.), 85 ± 1.58 g (morphine 1 μg/kg p.o.) and 109 ± 1.87 g (morphine 5 μg/kg p.o.). Also, the “pain threshold, IM (g) ± S.E.M.” value (morphine 0.004 μg/kg p.o., before PGE2) worked out at 77 ± 1.22 g; the “pain threshold, IM (g) ± S.E.M.” value (morphine 0.2 μg/kg p.o., before PGE2) is listed as 76 ± 1.87 g; the “pain threshold, IM (g) ± S.E.M.” value (morphine 1 μg/kg p.o., before PGE2) stood at 78 ± 1.22 g; the “pain threshold, IM (g) ± S.E.M.” value (morphine 5 μg/kg p.o., before PGE2) stood at 78 ± 1.22 g. Moreover, under setting [1], the 50% effective dose is 0.05515 µg/kg. Under setting [1], the 90% effective dose turned out to be 0.3267 µg/kg.
In the case of “SEQ ID NO: 3: one of 4 possible sequences pGlu-Phe-Ser-Pro-Glu-Asn-Cys-Lys/Gln-Gly-Glu-Ser-Lys/Gln-Pro-Cys; modified synthetic peptide (XFSPENCQGESKPC; Synthetically generated peptide)”, the analgesic activity result was “demonstrated analgesic activity”. Also, the “pain threshold, FM (grams) ± S.E.M.” value (p.o., 2 ml of solution (peptide diluted in 11 ml of saline), 3 hours after PGE2 100 ng/paw i.pl.) was 110 ± 2.74 grams. Further, the “pain threshold, IM (grams) ± S.E.M.” value (p.o., 2 ml of solution (peptide diluted in 11 ml of saline), before PGE2) was found to be 76 ± 1.00 grams.
For the compound “SEQ ID NO: 6: one of 4 possible sequences pGlu-Phe-Ser-Pro-Glu-Asn-Cys-Lys/Gln-Gly-Glu-Ser-Lys/Gln-Pro-Cys; synthetic peptide (XFSPENCKGESQPC; Synthetically generated peptide)”, the analgesic activity result was “inactivity”.
For the compound “SEQ ID NO: 7: one of 4 possible sequences pGlu-Phe-Ser-Pro-Glu-Asn-Cys-Lys/Gln-Gly-Glu-Ser-Lys/Gln-Pro-Cys; synthetic peptide ([pGlu]FSPENCKGESKPC; disulfide 7-14)”, the analgesic activity result was “inactivity”.

The record behind these values is US9109041B2, “Analog compounds of analgesic peptides derived from the venom of crotalus durissus terrificus snakes, their uses, compositions, methods of preparation and purification” (priority 2004, dated 2015).
